# System: 653999-131-R-J2-PDC complex spheroids, growth inhibition
# Assay: Anticancer human tumor 653999-131-R-J2-PDC patient-derived lung adenocarcinoma cell line growth inhibition [RAS]
# Conditions: for IC50: curve of first compound; for viability, T/C: stronger effect = lower value
# Procedure, shortened: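 Agents were tested in combination matrices in half-log decrements from a top concentration at or near clinical Cmax (10 microM if undetermined). Targets were multi-cell spheroids of tumour lines plus HUVEC and MSC stromal cells.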
# 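Also: spheroids exposed to the agents for seven days before the readout.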
compound,measurement,setting,value
C=CC(=O)N1CCN(c2nc(OCC3CCCN3C)nc3c(F)c(-c4nc(N)cc(C)c4C(F)(F)F)c(Cl)cc23)C(C)C1 (centres undefined) + CCn1c(-c2cc(N3CCN(C)CC3)cnc2C(C)OC)c2c3cc(ccc31)-c1csc(n1)CC(NC(=O)C1CC1C)C(=O)N1CCCC(N1)C(=O)OCC(C)(C)C2,IC50,second compound 0.000949 µM,> 1000 nM
same,IC50,second compound 0.003 µM,> 1000 nM
same,IC50,second compound 0.00949 µM,32.4 nM
same,IC50,second compound 0.03 µM,< 3.16 nM
same,IC50,second compound 0.0949 µM,< 3.16 nM
same,IC50,second compound 0.3 µM,< 3.16 nM
same,"viability, T/C","second compound 0.000949 µM, first compound 0.00316 µM",83.2%
same,"viability, T/C","second compound 0.000949 µM, first compound 0.01 µM",82.7%
same,"viability, T/C","second compound 0.000949 µM, first compound 0.0316 µM",82.1%
same,"viability, T/C","second compound 0.000949 µM, first compound 0.1 µM",78.4%
same,"viability, T/C","second compound 0.000949 µM, first compound 0.316 µM",92%
same,"viability, T/C","second compound 0.000949 µM, first compound 1 µM",86.1%
same,"viability, T/C","second compound 0.003 µM, first compound 0.00316 µM",57.9%
same,"viability, T/C","second compound 0.003 µM, first compound 0.01 µM",63%
same,"viability, T/C","second compound 0.003 µM, first compound 0.0316 µM",59.1%
same,"viability, T/C","second compound 0.003 µM, first compound 0.1 µM",65.7%
same,"viability, T/C","second compound 0.003 µM, first compound 0.316 µM",63.3%
same,"viability, T/C","second compound 0.003 µM, first compound 1 µM",75.6%
same,"viability, T/C","second compound 0.00949 µM, first compound 0.00316 µM",50%
same,"viability, T/C","second compound 0.00949 µM, first compound 0.01 µM",57.5%
same,"viability, T/C","second compound 0.00949 µM, first compound 0.0316 µM",50.2%
same,"viability, T/C","second compound 0.00949 µM, first compound 0.1 µM",40.4%
same,"viability, T/C","second compound 0.00949 µM, first compound 0.316 µM",40.2%
same,"viability, T/C","second compound 0.00949 µM, first compound 1 µM",42.6%
same,"viability, T/C","second compound 0.03 µM, first compound 0.00316 µM",46.5%
same,"viability, T/C","second compound 0.03 µM, first compound 0.01 µM",35.3%
same,"viability, T/C","second compound 0.03 µM, first compound 0.0316 µM",43.2%
same,"viability, T/C","second compound 0.03 µM, first compound 0.1 µM",32%
same,"viability, T/C","second compound 0.03 µM, first compound 0.316 µM",37.3%
same,"viability, T/C","second compound 0.03 µM, first compound 1 µM",34.9%
same,"viability, T/C","second compound 0.0949 µM, first compound 0.00316 µM",28.9%
same,"viability, T/C","second compound 0.0949 µM, first compound 0.01 µM",29.4%
same,"viability, T/C","second compound 0.0949 µM, first compound 0.0316 µM",26.7%
same,"viability, T/C","second compound 0.0949 µM, first compound 0.1 µM",38.9%
same,"viability, T/C","second compound 0.0949 µM, first compound 0.316 µM",38.6%
same,"viability, T/C","second compound 0.0949 µM, first compound 1 µM",35.9%
same,"viability, T/C","second compound 0.3 µM, first compound 0.00316 µM",29.5%
same,"viability, T/C","second compound 0.3 µM, first compound 0.01 µM",27.5%
same,"viability, T/C","second compound 0.3 µM, first compound 0.0316 µM",21.8%
same,"viability, T/C","second compound 0.3 µM, first compound 0.1 µM",32.6%
same,"viability, T/C","second compound 0.3 µM, first compound 0.316 µM",28.3%
same,"viability, T/C","second compound 0.3 µM, first compound 1 µM",26.1%
CC1(C)CCC(Nc2ncc(C(F)(F)F)c(-c3c[nH]c4c(P(C)(C)=O)c(C#N)ccc34)n2)CN1 (centres undefined) + CCn1c(-c2cc(N3CCN(C)CC3)cnc2C(C)OC)c2c3cc(ccc31)-c1csc(n1)CC(NC(=O)C1CC1C)C(=O)N1CCCC(N1)C(=O)OCC(C)(C)C2,IC50,second compound 0.000949 µM,> 300 nM
same,IC50,second compound 0.003 µM,< 0.949 nM
same,IC50,second compound 0.00949 µM,< 0.949 nM
same,IC50,second compound 0.03 µM,< 0.949 nM
same,IC50,second compound 0.0949 µM,< 0.949 nM
same,IC50,second compound 0.3 µM,< 0.949 nM
same,"viability, T/C","second compound 0.000949 µM, first compound 0.000949 µM",60.9%
same,"viability, T/C","second compound 0.000949 µM, first compound 0.003 µM",58.4%
same,"viability, T/C","second compound 0.000949 µM, first compound 0.00949 µM",56.4%
same,"viability, T/C","second compound 0.000949 µM, first compound 0.03 µM",45.1%
same,"viability, T/C","second compound 0.000949 µM, first compound 0.0949 µM",56.4%
same,"viability, T/C","second compound 0.000949 µM, first compound 0.3 µM",61.2%
same,"viability, T/C","second compound 0.003 µM, first compound 0.000949 µM",51%
same,"viability, T/C","second compound 0.003 µM, first compound 0.003 µM",41.6%
same,"viability, T/C","second compound 0.003 µM, first compound 0.00949 µM",40.8%
same,"viability, T/C","second compound 0.003 µM, first compound 0.03 µM",44.7%
same,"viability, T/C","second compound 0.003 µM, first compound 0.0949 µM",41.1%
same,"viability, T/C","second compound 0.003 µM, first compound 0.3 µM",38.2%
same,"viability, T/C","second compound 0.00949 µM, first compound 0.000949 µM",35.9%
same,"viability, T/C","second compound 0.00949 µM, first compound 0.003 µM",24.3%
same,"viability, T/C","second compound 0.00949 µM, first compound 0.00949 µM",21.4%
same,"viability, T/C","second compound 0.00949 µM, first compound 0.03 µM",21.6%
same,"viability, T/C","second compound 0.00949 µM, first compound 0.0949 µM",27.6%
same,"viability, T/C","second compound 0.00949 µM, first compound 0.3 µM",22.3%
same,"viability, T/C","second compound 0.03 µM, first compound 0.000949 µM",17.8%
same,"viability, T/C","second compound 0.03 µM, first compound 0.003 µM",18.3%
same,"viability, T/C","second compound 0.03 µM, first compound 0.00949 µM",17.4%
same,"viability, T/C","second compound 0.03 µM, first compound 0.03 µM",13.4%
same,"viability, T/C","second compound 0.03 µM, first compound 0.0949 µM",15.9%
same,"viability, T/C","second compound 0.03 µM, first compound 0.3 µM",16.5%
same,"viability, T/C","second compound 0.0949 µM, first compound 0.000949 µM",16.4%
same,"viability, T/C","second compound 0.0949 µM, first compound 0.003 µM",17.8%
same,"viability, T/C","second compound 0.0949 µM, first compound 0.00949 µM",14.5%
same,"viability, T/C","second compound 0.0949 µM, first compound 0.03 µM",14.4%
same,"viability, T/C","second compound 0.0949 µM, first compound 0.0949 µM",14.1%
same,"viability, T/C","second compound 0.0949 µM, first compound 0.3 µM",16.3%
same,"viability, T/C","second compound 0.3 µM, first compound 0.000949 µM",14.5%
same,"viability, T/C","second compound 0.3 µM, first compound 0.003 µM",15.2%
same,"viability, T/C","second compound 0.3 µM, first compound 0.00949 µM",14.7%
same,"viability, T/C","second compound 0.3 µM, first compound 0.03 µM",14.8%
same,"viability, T/C","second compound 0.3 µM, first compound 0.0949 µM",13.7%
same,"viability, T/C","second compound 0.3 µM, first compound 0.3 µM",15.7%
